From ChEMBL document CHEMBL1154624, “Novel class of LIM-kinase 2 inhibitors for the treatment of ocular hypertension and associated glaucoma” (J Med Chem, 2009)

What was measured:
LIM domain kinase 2 = LIM domain kinase 2 (Homo sapiens, UniProt P53671); test: Inhibition of human recombinant LIMK2 expressed in baculovirus-Sf9 system by scintillation counting; assay type: cell-based
PTM = details: Sus scrofa, at 10 nM
Description: Inhibition of LIMK2 in pig PTM cells assessed as inhibition of cofilin-phosphorylation at 10 nM by Western blot

[1] = target: Rho-associated protein kinase 1 (Homo sapiens, UniProt Q13464); test: Inhibition of human ROCK1 expressed in baculovirus system
Chain of Rho-associated protein kinase 1 (Q13464 whole entry): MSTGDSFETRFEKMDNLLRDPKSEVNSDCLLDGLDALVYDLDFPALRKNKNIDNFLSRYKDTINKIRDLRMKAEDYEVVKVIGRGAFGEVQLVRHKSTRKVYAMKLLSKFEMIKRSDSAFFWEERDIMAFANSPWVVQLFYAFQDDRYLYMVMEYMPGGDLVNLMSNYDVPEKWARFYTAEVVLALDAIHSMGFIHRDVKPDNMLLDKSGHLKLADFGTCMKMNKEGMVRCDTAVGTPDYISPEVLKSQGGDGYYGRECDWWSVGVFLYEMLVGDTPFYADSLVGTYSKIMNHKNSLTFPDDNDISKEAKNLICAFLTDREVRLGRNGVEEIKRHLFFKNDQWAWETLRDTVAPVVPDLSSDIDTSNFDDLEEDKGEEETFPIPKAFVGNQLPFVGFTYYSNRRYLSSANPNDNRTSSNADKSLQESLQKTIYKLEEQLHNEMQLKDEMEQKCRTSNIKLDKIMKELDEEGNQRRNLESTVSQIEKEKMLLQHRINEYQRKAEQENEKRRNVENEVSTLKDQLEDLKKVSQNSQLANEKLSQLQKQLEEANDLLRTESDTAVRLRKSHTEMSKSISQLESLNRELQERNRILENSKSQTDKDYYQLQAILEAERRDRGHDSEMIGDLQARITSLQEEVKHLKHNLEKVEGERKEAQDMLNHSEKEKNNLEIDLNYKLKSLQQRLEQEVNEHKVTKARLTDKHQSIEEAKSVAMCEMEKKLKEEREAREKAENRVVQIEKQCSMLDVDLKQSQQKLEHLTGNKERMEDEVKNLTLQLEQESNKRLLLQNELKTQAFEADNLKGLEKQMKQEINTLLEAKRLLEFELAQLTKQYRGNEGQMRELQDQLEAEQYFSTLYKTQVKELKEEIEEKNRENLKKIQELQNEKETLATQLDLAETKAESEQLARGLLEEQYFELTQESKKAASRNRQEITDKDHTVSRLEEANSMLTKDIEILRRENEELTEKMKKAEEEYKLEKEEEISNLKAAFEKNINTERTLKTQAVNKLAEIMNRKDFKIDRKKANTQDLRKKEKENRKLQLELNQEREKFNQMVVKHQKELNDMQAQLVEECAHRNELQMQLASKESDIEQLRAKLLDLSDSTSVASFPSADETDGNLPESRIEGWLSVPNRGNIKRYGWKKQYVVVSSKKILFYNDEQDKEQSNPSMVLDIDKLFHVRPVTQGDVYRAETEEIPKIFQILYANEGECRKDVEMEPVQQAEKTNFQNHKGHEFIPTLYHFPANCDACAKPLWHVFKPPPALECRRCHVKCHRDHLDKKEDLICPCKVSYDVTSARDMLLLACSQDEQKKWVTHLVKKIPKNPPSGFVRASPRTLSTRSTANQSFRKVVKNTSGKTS

Mus musculus [2] = test: Inhibition of dexamethasone-induced ocular hypertension in C57BL/6J Tyr c-Brd x 129S5/SvEvBrD hybrid mouse assessed as reduction of intraocular pressure after 2 hrs administered as cosolvent/HPMC based formulation; assay type: functional, organism-based; details: Eye
[3] = Increase in outflow facility in pig eye at 100 nM by eye-perfusion assay; assay type: functional, Sus scrofa
LIM domain kinase 1 = LIM domain kinase 1 (Homo sapiens, UniProt P53667); test: Inhibition of LIMK1
Chain of LIM domain kinase 1 (P53667 whole entry, the tested form may be a part): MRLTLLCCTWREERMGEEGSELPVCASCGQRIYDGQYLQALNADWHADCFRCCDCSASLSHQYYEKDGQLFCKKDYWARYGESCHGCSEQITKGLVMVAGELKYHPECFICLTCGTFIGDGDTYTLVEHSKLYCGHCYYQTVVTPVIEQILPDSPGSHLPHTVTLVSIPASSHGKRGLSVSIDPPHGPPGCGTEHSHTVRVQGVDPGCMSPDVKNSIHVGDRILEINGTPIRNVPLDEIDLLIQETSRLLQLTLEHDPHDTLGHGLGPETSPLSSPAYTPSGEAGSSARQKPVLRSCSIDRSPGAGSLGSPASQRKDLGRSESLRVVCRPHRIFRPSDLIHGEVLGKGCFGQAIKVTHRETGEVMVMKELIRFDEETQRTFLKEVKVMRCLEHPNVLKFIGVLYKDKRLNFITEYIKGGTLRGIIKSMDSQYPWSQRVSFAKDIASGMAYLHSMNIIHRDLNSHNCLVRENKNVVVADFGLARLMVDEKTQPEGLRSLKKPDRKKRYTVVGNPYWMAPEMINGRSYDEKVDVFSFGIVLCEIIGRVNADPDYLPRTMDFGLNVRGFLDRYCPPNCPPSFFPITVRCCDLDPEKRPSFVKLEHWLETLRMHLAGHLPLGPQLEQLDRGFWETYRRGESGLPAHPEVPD

Mus musculus [4] = test: Inhibition of dexamethasone-induced ocular hypertension in C57BL/6J Tyr c-Brd x 129S5/SvEvBrD hybrid mouse assessed as reduction of intraocular pressure at 3 ug after 2 hrs administered as cosolvent/HPMC based formulation; assay type: functional, Eye
Homo sapiens [5] = species on record: Homo sapiens; test: Selectivity ratio of IC50 for human LIMK2 to IC50 for human ROCK2
[6] = target: Rho-associated protein kinase 2 (Homo sapiens, UniProt O75116); test: Inhibition of human ROCK2
Chain of Rho-associated protein kinase 2 (O75116 whole entry): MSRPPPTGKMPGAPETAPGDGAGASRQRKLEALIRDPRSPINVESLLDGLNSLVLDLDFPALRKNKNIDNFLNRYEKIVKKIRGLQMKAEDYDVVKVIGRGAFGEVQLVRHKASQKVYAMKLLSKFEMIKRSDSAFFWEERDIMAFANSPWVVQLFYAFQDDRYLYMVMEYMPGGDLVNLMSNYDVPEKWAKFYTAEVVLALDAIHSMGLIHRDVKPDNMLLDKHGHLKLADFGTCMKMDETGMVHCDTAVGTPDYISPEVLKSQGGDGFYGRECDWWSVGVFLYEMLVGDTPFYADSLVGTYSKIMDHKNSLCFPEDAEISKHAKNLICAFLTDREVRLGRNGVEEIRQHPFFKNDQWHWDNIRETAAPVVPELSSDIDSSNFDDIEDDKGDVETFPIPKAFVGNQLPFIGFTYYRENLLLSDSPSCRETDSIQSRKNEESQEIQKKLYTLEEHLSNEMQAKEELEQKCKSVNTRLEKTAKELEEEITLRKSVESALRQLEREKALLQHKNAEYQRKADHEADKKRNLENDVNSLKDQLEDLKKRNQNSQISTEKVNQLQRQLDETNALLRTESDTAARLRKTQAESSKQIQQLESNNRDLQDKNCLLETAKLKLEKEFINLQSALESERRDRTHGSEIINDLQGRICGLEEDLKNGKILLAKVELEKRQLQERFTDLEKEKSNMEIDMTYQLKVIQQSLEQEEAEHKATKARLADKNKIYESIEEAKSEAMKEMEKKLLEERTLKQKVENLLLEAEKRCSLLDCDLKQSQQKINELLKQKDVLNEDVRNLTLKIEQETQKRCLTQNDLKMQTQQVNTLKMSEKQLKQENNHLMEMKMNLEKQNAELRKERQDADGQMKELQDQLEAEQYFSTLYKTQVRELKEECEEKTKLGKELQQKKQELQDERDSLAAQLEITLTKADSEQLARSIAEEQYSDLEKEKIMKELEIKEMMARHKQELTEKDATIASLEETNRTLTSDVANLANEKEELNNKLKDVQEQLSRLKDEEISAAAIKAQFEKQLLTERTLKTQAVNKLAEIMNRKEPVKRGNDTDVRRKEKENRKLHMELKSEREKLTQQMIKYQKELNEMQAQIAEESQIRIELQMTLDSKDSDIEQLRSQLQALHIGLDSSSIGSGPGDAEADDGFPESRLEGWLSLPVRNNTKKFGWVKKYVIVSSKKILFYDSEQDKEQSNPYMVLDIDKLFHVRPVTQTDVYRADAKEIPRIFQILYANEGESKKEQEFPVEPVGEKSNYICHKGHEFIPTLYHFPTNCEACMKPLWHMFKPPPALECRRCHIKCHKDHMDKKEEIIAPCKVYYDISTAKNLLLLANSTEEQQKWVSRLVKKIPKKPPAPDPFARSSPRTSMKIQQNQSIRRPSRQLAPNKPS

Mus musculus [7] = test: Inhibition of dexamethasone-induced ocular hypertension in C57BL/6J Tyr c-Brd x 129S5/SvEvBrD hybrid mouse assessed as reduction of intraocular pressure at 5 ug after 1 hr administered as xanthan gum formulation; assay type: functional, Eye
Homo sapiens [8] = species on record: Homo sapiens; test: Selectivity ratio of IC50 for human LIMK2 to IC50 for human ROCK1
[9] = Increase in outflow facility in pig eye at 10 nM by eye-perfusion assay; assay type: functional, Sus scrofa

Chain of LIM domain kinase 2 (P53671 whole entry, the tested form may be a part): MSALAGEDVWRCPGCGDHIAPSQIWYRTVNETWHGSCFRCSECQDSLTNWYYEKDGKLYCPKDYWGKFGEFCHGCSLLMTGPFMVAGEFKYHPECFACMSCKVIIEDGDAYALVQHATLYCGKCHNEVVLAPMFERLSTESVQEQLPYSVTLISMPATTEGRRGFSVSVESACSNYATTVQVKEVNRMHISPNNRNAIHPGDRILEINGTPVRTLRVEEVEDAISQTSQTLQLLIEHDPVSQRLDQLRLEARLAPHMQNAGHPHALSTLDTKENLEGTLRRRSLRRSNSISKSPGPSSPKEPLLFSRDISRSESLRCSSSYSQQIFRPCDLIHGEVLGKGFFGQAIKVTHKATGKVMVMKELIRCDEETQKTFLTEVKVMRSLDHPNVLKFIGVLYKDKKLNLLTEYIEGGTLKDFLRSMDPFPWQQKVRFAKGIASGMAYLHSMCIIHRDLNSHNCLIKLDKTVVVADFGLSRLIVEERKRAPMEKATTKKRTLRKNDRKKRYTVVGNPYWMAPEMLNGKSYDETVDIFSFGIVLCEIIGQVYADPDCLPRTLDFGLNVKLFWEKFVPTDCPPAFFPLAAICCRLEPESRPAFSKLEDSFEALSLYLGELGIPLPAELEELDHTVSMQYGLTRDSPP

Row | SMILES | IC50 (LIM domain kinase 2) [nM] | inhibition (PTM) [%] | other results
1 | Cc1c[nH]c2ncnc(N3CCN(/C(=N/C#N)Nc4cccc(S(=O)(=O)NC(C)C)c4)[C@@H](C)C3)c12 | 1.7 | 0 | 
2 | Cc1c[nH]c2ncnc(N3CCN(/C(=N/C#N)Nc4cccc(S(=O)(=O)NCCO)c4)[C@@H](C)C3)c12 |  | 22 | 
3 | Cc1c[nH]c2ncnc(N3CCN(C(=Nc4cccc(C(C)(C)C)c4)NC#N)[C@@H](C)C3)c12 | 1.1 |  | 
4 | Cc1c[nH]c2ncnc(N3CCN(/C(=N/C#N)Nc4cccc(C(C)(C)C)c4)[C@@H](C)C3)c12 |  | 10 | 
5 | CC1CN(c2ncnc3[nH]ccc23)CCN1/C(=N/C#N)Nc1cccc(Br)c1 (racemic) | 8.1 |  | 
6 | Cc1c[nH]c2ncnc(N3CCN(C(=O)Nc4cccc(OC(=O)N(C)C)c4)[C@@H](C)C3)c12 | 1.2 | 61 | IC50 [1]: 490 nM; Activity (Mus musculus [2]): Dose-dependent effect; Activity [3]: 30%; IC50 (LIM domain kinase 1): 3.2 nM; Activity (Mus musculus [4]): -3.2 mmHg; Ratio IC50 (Homo sapiens [5]): > 900; IC50 [6]: 1100 nM; Activity (Mus musculus [7]): 3.6 mmHg; Ratio IC50 (Homo sapiens [8]): > 100
7 | COc1cccc(NC(=O)C2CCN(c3ncnc4[nH]cc(C)c34)CC2)c1 | 520 |  | 
8 | COc1ccc(NC(=O)C2CCN(c3ncnc4[nH]cc(C)c34)CC2)cc1 | 1500 |  | 
9 | CC(C)(C)NC[C@H](O)COc1nsnc1N1CCOCC1 [TIMOLOL] |  |  | Activity (Mus musculus [4]): -5.2 mmHg
10 | Cc1c[nH]c2ncnc(N3CCN(/C(=N/C#N)Nc4cccc(C(=O)NC(C)C)c4)[C@@H](C)C3)c12 |  | 0 | 
11 | Cc1c[nH]c2ncnc(N3CCN(C(=O)Nc4ccc(F)c(Br)c4)[C@@H](C)C3)c12 | 3.2 | 51 | IC50 [1]: 51 nM; IC50 (LIM domain kinase 1): 6.6 nM; Ratio IC50 (Homo sapiens [5]): 88; IC50 [6]: 280 nM; Activity (Mus musculus [7]): 3.6 mmHg; Ratio IC50 (Homo sapiens [8]): 16
12 | Cc1c[nH]c2ncnc(N3CCN(/C(=N/C#N)Nc4cccc(Br)c4)[C@@H](C)C3)c12 |  | 50 | Activity [3]: 30%; Ratio IC50 (Homo sapiens [5]): > 900; Activity (Mus musculus [7]): 3.7 mmHg; Ratio IC50 (Homo sapiens [8]): > 100
13 | Cc1c[nH]c2ncnc(N3CCN(/C(=N/C#N)Nc4cccc(Br)c4)CC3)c12 | 11 |  | 
14 | Cc1c[nH]c2ncnc(N3CCN(C(=Nc4cccc(S(=O)(=O)NCCO)c4)NC#N)[C@@H](C)C3)c12 | 2.9 |  | 
15 | Cc1c[nH]c2ncnc(N3CCN(/C(=N/C#N)Nc4cccc(C(=O)NCCO)c4)[C@@H](C)C3)c12 |  | 9 | 
16 | Cc1c[nH]c2ncnc(N3CCC(C(=O)Nc4ccccc4)CC3)c12 | 800 |  | 
17 | Cc1c[nH]c2ncnc(N3CCN(C(=Nc4cccc(C(=O)NCCO)c4)NC#N)[C@@H](C)C3)c12 | 0.8 |  | 
18 | Cc1c[nH]c2ncnc(N3CC4CCC(C3)N4C(=O)Nc3cccc(Br)c3)c12 | 16 |  | 
19 | C[C@@H](N)c1ccc(C(=O)Nc2ccnc3[nH]ccc23)cc1 [Y-39983] |  |  | Activity [9]: 28%
20 | Cc1c[nH]c2ncnc(N3CCN(/C(=N\C#N)Nc4cccc(Br)c4)[C@@H](C)C3)c12 | 0.9 |  | IC50 [1]: 260 nM; IC50 (LIM domain kinase 1): 0.5 nM; IC50 [6]: 2700 nM
21 | Cc1c[nH]c2ncnc(N3CCN(/C(=N/C#N)Nc4cccc(C#N)c4)[C@@H](C)C3)c12 | 1.2 | 18 | 
22 | Cc1c[nH]c2ncnc(N3CCN(C(=O)Nc4cccc(Br)c4)[C@@H](C)C3)c12 | 3.9 |  | 
23 | Cc1cccc(NC(=O)N2CCN(c3ncnc4[nH]cc(C)c34)CC2)c1 | 92 |  | 
24 | Cc1c[nH]c2ncnc(N3CCN(C(=O)Nc4cccc(C(=O)NC(C)C)c4)[C@@H](C)C3)c12 | 5.5 | 0 | 

Now from value to compound, other results behind:

Row | IC50 (LIM domain kinase 2) [nM] | SMILES | inhibition (PTM) [%] | other results
25 | > 1000 | C[C@H]1CN(c2nc(Cl)nc3[nH]ccc23)CCN1C(=Nc1cccc(Br)c1)NC#N |  | 
26 | 3.4 | Cc1c[nH]c2ncnc(N3CCN(/C(=N/C#N)Nc4cccc(C(=O)NCCN(C)C)c4)[C@@H](C)C3)c12 | 0 | 
27 | 76 | Cc1c[nH]c2ncnc(N3CC4CC3CN4C(=Nc3cccc(Br)c3)NC#N)c12 (stereo not given) |  | 
28 | 1.6 | Cc1c[nH]c2ncnc(N3CCN(/C(=N/C#N)Nc4cccc(Cl)c4)[C@@H](C)C3)c12 | 49 | 
29 | 3.9 | Cc1c[nH]c2ncnc(N3C[C@H](C)N(C(=Nc4cccc(Br)c4)NC#N)C[C@H]3C)c12 |  | 
30 | 11500 | Cc1ccccc1NC(=O)C1CCN(c2ncnc3[nH]cc(C)c23)CC1 |  | 
31 | 1300 | Cc1ccc(NC(=O)C2CCN(c3ncnc4[nH]cc(C)c34)CC2)cc1 |  | 
32 | 37 | Cc1c[nH]c2ncnc(N3CCN(C(=O)Nc4cccc(Br)c4)[C@H](C)C3)c12 |  | 
33 | 650 | Cc1cccc(NC(=O)C2CCN(c3ncnc4[nH]cc(C)c34)CC2)c1 |  | 
34 | 38 | Cc1c[nH]c2ncnc(N3CCN(C(=O)Nc4cccc(Br)c4)CC3)c12 |  | 
35 | 4.2 | Cc1cc2c(N3CCN(/C(=N/C#N)Nc4cccc(Br)c4)[C@@H](C)C3)ncnc2[nH]1 |  | 
36 | 1.9 | Cc1c[nH]c2ncnc(N3CCN(/C(=N/C#N)Nc4cccc(C(F)(F)F)c4)[C@@H](C)C3)c12 | 12 | 
37 | 1.5 | Cc1c[nH]c2ncnc(N3CCN(/C(=N/C#N)Nc4ccc(F)c(Br)c4)[C@@H](C)C3)c12 | 63 | IC50 [1]: 310 nM; IC50 (LIM domain kinase 1): 3.7 nM; Ratio IC50 (Homo sapiens [5]): > 900; IC50 [6]: 2200 nM; Ratio IC50 (Homo sapiens [8]): > 100
38 | 3 | Cc1c[nH]c2ncnc(N3CCN(C(=O)Nc4cccc(C(=O)NCCO)c4)[C@@H](C)C3)c12 | 0 | 
39 | 3.5 | Cc1c[nH]c2ncnc(N3CCN(C(=Nc4cccc(C(=O)NC(C)C)c4)NC#N)[C@@H](C)C3)c12 |  | 
40 | 4.2 | Cc1c[nH]c2ncnc(N3CCN(/C(=N/C#N)Nc4cccc(Br)c4)[C@@H](C(C)C)C3)c12 |  | 
41 | 3 | Cc1c[nH]c2ncnc(N3CCN(C(=O)Nc4cccc(C(=O)NC(CO)CO)c4)[C@@H](C)C3)c12 | 27 | 
42 | 140 | COc1cccc(NC(=O)N2CCN(c3ncnc4[nH]cc(C)c34)CC2)c1 |  | 
43 | 133 | Cc1c[nH]c2ncnc(N3C[C@@H](C)N(C(=O)Nc4cccc(Br)c4)[C@@H](C)C3)c12 |  | 
44 | 2.3 | Cc1c[nH]c2ncnc(N3CCN(C(=O)Nc4cccc(Cl)c4)[C@@H](C)C3)c12 | 0 | 
45 | 300 | Cc1c[nH]c2ncnc(N3CCC(C(=O)Nc4cccc(Br)c4)CC3)c12 |  | 
46 | 1.2 | C[C@H]1CN(c2ncnc3[nH]cc(Cl)c23)CCN1/C(=N/C#N)Nc1cccc(Br)c1 |  | 
47 | 64 | Cc1c[nH]c2ncnc(N3CCC(C(=O)Nc4cccc(Oc5ccccc5)c4)CC3)c12 |  | 
48 | 1.8 | Cc1c[nH]c2ncnc(N3CCN(/C(=N/C#N)Nc4cccc(F)c4)[C@@H](C)C3)c12 | 39 | 
49 | 6.8 | Cc1c[nH]c2ncnc(N3CCN(/C(=N/S(C)(=O)=O)Nc4cccc(Br)c4)[C@@H](C)C3)c12 | 48 | 
